# From ChEMBL document CHEMBL6121014, “Novel α-mangostin derivatives as promising antiviral agents: Isolation, synthesis, and evaluation against chikungunya virus” (Eur J Med Chem, 2025)
# Activity calls are given as the source filed them. The rule behind the calls is not given here.
# Key:
# [1] = Selectivity ratio of IC50 for antiviral activity against CHIKV infected in green monkey Vero cells assessed as reduction in viral titer pretreated the cells with viral infection for 1 hr followed by compound addition and measured after 24 hrs by Foci forming unit assay to CC50 for cytotoxicity against green monkey Vero cells; assay type: toxicity, cell-based
# Chikungunya virus [2] = test: Antiviral activity against CHIKV infected in green monkey Vero cells assessed as reduction in viral titer at 3.125 uM pretreated the cells with viral infection for 1 hr followed by compound addition and measured after 24 hrs by Foci forming unit assay (reference value: 8.55 log10FFU/ml); assay type: functional
# Vero = test: (§1) Cytotoxicity against green monkey Vero cells assessed as reduction in cell viability at 24 to 48 hrs by MTT assay; assay type: toxicity, cell-based; design: Activity: concentration or dose not given beside the values; conditions: chlorocebus sabaeus, vero; time 24-48 hrs
# [3] = as §1; assay type: toxicity, cell-based; design: Activity: concentration or dose not given beside the values; conditions: chlorocebus sabaeus, Vero cells; time 24-48 hrs
# Chikungunya virus [4] = test: Antiviral activity against CHIKV infected in green monkey Vero cells assessed as reduction in viral titer pretreated the cells with viral infection for 1 hr followed by compound addition and measured after 24 hrs by Foci forming unit assay; assay type: functional, organism-based
# Chikungunya virus [5] = test: Antiviral activity against CHIKV infected in green monkey Vero cells assessed as reduction in viral titer at 1.56 uM pretreated the cells with viral infection for 1 hr followed by compound addition and measured after 24 hrs by Foci forming unit assay (reference value: 8.55 log10FFU/ml); assay type: functional
# Chikungunya virus [6] = test: Antiviral activity against CHIKV infected in green monkey Vero cells assessed as inhibition of viral entry by entry assay; assay type: functional, organism-based
# Chikungunya virus [7] = test: Antiviral activity against CHIKV infected in green monkey Vero cells assessed as inhibition of viral post entry by entry bypass assay; assay type: functional, organism-based
# Chikungunya virus [8] = test: Antiviral activity against CHIKV infected in green monkey Vero cells assessed as reduction in viral titer at 25 uM pretreated the cells with viral infection for 1 hr followed by compound addition and measured after 24 hrs by Foci forming unit assay (reference value: 8.55 log10FFU/ml); assay type: functional
# Chikungunya virus [9] = test: Antiviral activity against CHIKV infected in green monkey Vero cells assessed as reduction in viral titer at 6.25 uM pretreated with compound for 24 hrs followed by viral infection by Foci forming unit assay (reference value: 8.55 log10FFU/ml); assay type: functional
# Chikungunya virus [10] = test: Antiviral activity against CHIKV infected in green monkey Vero cells assessed as reduction in viral titer pretreated with compound for 24 hrs followed by viral infection by Foci forming unit assay; assay type: functional, organism-based
# Chikungunya virus [11] = test: Antiviral activity against CHIKV infected in green monkey Vero cells assessed as reduction in viral titer at 50 uM pretreated with compound for 24 hrs followed by viral infection by Foci forming unit assay (reference value: 8.81 log10FFU/ml); assay type: functional
# Chikungunya virus [12] = test: Antiviral activity against CHIKV infected in green monkey Vero cells assessed as reduction in viral titer at 6.25 uM pretreated with compound for 24 hrs followed by viral infection by Foci forming unit assay (reference value: 8.81 log10FFU/ml); assay type: functional, organism-based
# Chikungunya virus [13] = test: Antiviral activity against CHIKV infected in green monkey Vero cells assessed as reduction in viral titer at 50 uM pretreated with compound for 24 hrs followed by viral infection by foci forming unit assay (reference value: 8.48 log10FFU/ml); assay type: functional
# Chikungunya virus [14] = test: Antiviral activity against CHIKV infected in green monkey Vero cells assessed as reduction in viral titer at 25 uM pretreated with compound for 24 hrs followed by viral infection by foci forming unit assay (reference value: 8.48 log10FFU/ml); assay type: functional
# Chikungunya virus [15] = test: Antiviral activity against CHIKV infected in green monkey Vero cells assessed as reduction in viral titer at 12.5 to 25 uM pretreated the cells with viral infection for 1 hr followed by compound addition and measured after 24 hrs by Foci forming unit assay (reference value: 8.55 log10FFU/ml); assay type: functional; conditions: dose 12.5-25 µM
# Chikungunya virus [16] = test: Antiviral activity against CHIKV infected in green monkey Vero cells assessed as inhibition of infectious virus preincubated the cells for 45 mins followed by compound addition and measured after 1 to 6 hrs post infection by time of addition assay; assay type: functional, organism-based; conditions: time 1-6 hrs
# Chikungunya virus [17] = test: Antiviral activity against CHIKV infected in green monkey Vero cells assessed as inhibition of infectious virus preincubated the cells for 45 mins followed by compound addition and measured after 5 to 6 hrs post infection by time of addition assay; assay type: functional; design: scale not given: the % may be the effect or the level left; conditions: time 5-6 hrs
# Chikungunya virus [18] = test: Antiviral activity against CHIKV infected in green monkey Vero cells assessed as reduction in viral titer at 12.5 to 50 uM pretreated the cells with viral infection for 1 hr followed by compound addition and measured after 24 hrs by Foci forming unit assay (reference value: 8.55 log10FFU/ml); assay type: functional; conditions: dose 12.5-50 µM
SMILES,selectivity ratio at 24 h [1],Activity (Vero) [%],CC50 [3] [µM],IC50 (Chikungunya virus [4]) [µM],also measured
COc1c(O)cc2oc3cc4c(c(O)c3c(=O)c2c1CC=C(C)C)C=CC(C)(C)O4 [MANGOSTANIN],5.55,> 90,6.68,1.02,Activity (Chikungunya virus [2]): 6.42 log10FFU/ml; Activity (Chikungunya virus [5]): 7.47 log10FFU/ml
COc1c(OCC#Cc2ccc(C(C)=O)cc2)cc2oc3cc4c(c(O)c3c(=O)c2c1CC=C(C)C)C=CC(C)(C)O4,637,> 90,194,0.304,Activity (Chikungunya virus [6]): Active; Activity (Chikungunya virus [7]): Active; Highest Inhibitory Effect Observed
COc1c(OCc2cn(-c3cc(C)ccc3C)nn2)cc2oc3cc4c(c(O)c3c(=O)c2c1CC=C(C)C)C=CC(C)(C)O4,,> 90,,,
C#CCOc1cc2oc3cc4c(c(O)c3c(=O)c2c(CC=C(C)C)c1OC)C=CC(C)(C)O4,,> 90,,,
COc1c(OCc2cn(-c3cccc(F)c3F)nn2)cc2oc3cc4c(c(O)c3c(=O)c2c1CC=C(C)C)C=CC(C)(C)O4,,> 90,,,
COc1c(OCc2cn(-c3ccc(F)c(Cl)c3)nn2)cc2oc3cc4c(c(O)c3c(=O)c2c1CC=C(C)C)C=CC(C)(C)O4,,> 90,,,
O[C@H]1[C@H](O)[C@@H](O)[C@H](O)[C@@H](O)[C@H]1O [INOSITOL],,> 90,,,
COc1c(OCC#Cc2cccc(C(F)(F)F)c2)cc2oc3cc4c(c(O)c3c(=O)c2c1CC=C(C)C)C=CC(C)(C)O4,,> 90,,,
COc1c(OCc2cn(-c3c(C)cccc3C)nn2)cc2oc3cc4c(c(O)c3c(=O)c2c1CC=C(C)C)C=CC(C)(C)O4,,> 90,,,Activity (Chikungunya virus [7]): Active
COc1c(OCc2cn(-c3c(C)cc(C)cc3C)nn2)cc2oc3cc4c(c(O)c3c(=O)c2c1CC=C(C)C)C=CC(C)(C)O4,,< 90,,,
O=c1cc(-c2ccc(O)c(O)c2)oc2c(O)c(O)cc(O)c12 [HYPOLAETIN],,> 90,,,
COc1c(OCC(=O)N2CCN(S(=O)(=O)c3ccc(Cl)cc3)CC2)cc2oc3cc4c(c(O)c3c(=O)c2c1CC=C(C)C)C=CC(C)(C)O4,14.3,> 90,160,11.2,Activity (Chikungunya virus [8]): 7.39 log10FFU/ml
COc1c(OCC(=O)N2CCN(S(=O)(=O)c3ccc(C#N)cc3)CC2)cc2oc3cc4c(c(O)c3c(=O)c2c1CC=C(C)C)C=CC(C)(C)O4,119,> 90,223,1.88,Activity (Chikungunya virus [2]): 7.44 log10FFU/ml
COc1c(O)cc2oc3cc(O)c(CC=C(C)C)c(O)c3c(=O)c2c1CC=C(C)C [MANGOSTIN],,> 90,15.4,2.2,Activity (Chikungunya virus [9]): 7.28 log10FFU/ml; Activity (Chikungunya virus [2]): 7.37 log10FFU/ml
COc1c(OCc2cn(-c3ccc(C)cc3C)nn2)cc2oc3cc4c(c(O)c3c(=O)c2c1CC=C(C)C)C=CC(C)(C)O4,,> 90,,,
COc1c(OCc2cn(-c3ccc(C)c(C)c3)nn2)cc2oc3cc4c(c(O)c3c(=O)c2c1CC=C(C)C)C=CC(C)(C)O4,,> 90,,,
C=C(C)C1Cc2c(cc3oc4cc(O)c(OC)c(CC=C(C)C)c4c(=O)c3c2O)O1 (centres undefined) [MANGOSTENONE F],6.54,> 90,12.8,1.96,IC50 (Chikungunya virus [10]): 21.8 µM; Activity (Chikungunya virus [2]): 7.42 log10FFU/ml
COc1c(OCC#Cc2ccc(I)cc2)cc2oc3cc4c(c(O)c3c(=O)c2c1CC=C(C)C)C=CC(C)(C)O4,,> 90,,,
CC(C)=CCc1c(O)c(CC=C(C)C)c2oc3c(O)ccc(O)c3c(=O)c2c1O [GARTANIN],2.07,> 90,7.71,3.73,Activity (Chikungunya virus [9]): 7.42 log10FFU/ml

SMILES,selectivity ratio at 24 h [1],Activity (Vero) [%],CC50 [3] [µM],IC50 (Chikungunya virus [4]) [µM],also measured
CC(C)=CCc1c(O)cc2oc3cc(O)c4c(c3c(=O)c2c1O)CCC(C)(C)O4,2.79,> 90,11.4,4.1,Activity (Chikungunya virus [9]): 7.43 log10FFU/ml
COc1c(OCC(=O)N2CCN(S(=O)(=O)c3ccc(C)cc3)CC2)cc2oc3cc4c(c(O)c3c(=O)c2c1CC=C(C)C)C=CC(C)(C)O4,,> 90,,,
COc1c(OCC#Cc2ccc(Cl)cc2)cc2oc3cc4c(c(O)c3c(=O)c2c1CC=C(C)C)C=CC(C)(C)O4,,> 90,,,
COc1c(OCC#Cc2ccc(C#N)cc2)cc2oc3cc4c(c(O)c3c(=O)c2c1CC=C(C)C)C=CC(C)(C)O4,,> 90,,,
COc1c(OCc2cn(-c3cccc(C)c3)nn2)cc2oc3cc4c(c(O)c3c(=O)c2c1CC=C(C)C)C=CC(C)(C)O4,,> 90,,,
COc1c(O)cc2oc3cc(O)c4c(c3c(=O)c2c1CC=C(C)C)OC(C)(C)CC4,4.01,> 90,119,29.7,Activity (Chikungunya virus [11]): 7.62 log10FFU/ml; Activity (Chikungunya virus [2]): 7.39 log10FFU/ml; Activity (Chikungunya virus [12]): Active
COc1c(OCC(=O)N2CCN(S(=O)(=O)c3ccc(C(F)(F)F)cc3)CC2)cc2oc3cc4c(c(O)c3c(=O)c2c1CC=C(C)C)C=CC(C)(C)O4,25,> 90,160,6.41,Activity (Chikungunya virus [13]): ~7.29 log10FFU/ml; IC50 (Chikungunya virus [10]): 6.96 µM; Activity (Chikungunya virus [14]): ~7.29 log10FFU/ml; Activity (Chikungunya virus [15]): 7.4 log10FFU/ml
COc1c(OCC#Cc2ccccc2)cc2oc3cc4c(c(O)c3c(=O)c2c1CC=C(C)C)C=CC(C)(C)O4,,> 90,,,
COc1c(OCc2cn(-c3cccc(C(F)(F)F)c3)nn2)cc2oc3cc4c(c(O)c3c(=O)c2c1CC=C(C)C)C=CC(C)(C)O4,,> 90,,,
COc1c(OCc2cn(-c3ccc(Br)cc3)nn2)cc2oc3cc4c(c(O)c3c(=O)c2c1CC=C(C)C)C=CC(C)(C)O4,,< 90,,,
COc1c(OCc2cn(-c3ccccc3)nn2)cc2oc3cc4c(c(O)c3c(=O)c2c1CC=C(C)C)C=CC(C)(C)O4,,> 90,,,
O=c1c2cc(O)c(O)cc2oc2cc(O)cc(O)c12,,> 90,,,
COc1c(OCC#Cc2ccc(O)cc2)cc2oc3cc4c(c(O)c3c(=O)c2c1CC=C(C)C)C=CC(C)(C)O4,,> 90,,,Activity (Chikungunya virus [16]): Active
COc1c(OCc2cn(-c3cc(Cl)ccc3Cl)nn2)cc2oc3cc4c(c(O)c3c(=O)c2c1CC=C(C)C)C=CC(C)(C)O4,76,> 90,148,1.95,Activity (Chikungunya virus [6]): Active; Largest Inhibitory Effect Was Observed; Activity (Chikungunya virus [16]): Active; Activity (Chikungunya virus [17]): >90%
COc1c(OCc2cn(-c3ccc(Cl)cc3)nn2)cc2oc3cc4c(c(O)c3c(=O)c2c1CC=C(C)C)C=CC(C)(C)O4,63.1,> 90,59.7,0.947,Activity (Chikungunya virus [6]): Active; Activity (Chikungunya virus [16]): Active; Activity (Chikungunya virus [7]): Active; Activity (Chikungunya virus [17]): >90%
COc1c(OCC(=O)N2CCN(S(=O)(=O)c3ccc(F)cc3)CC2)cc2oc3cc4c(c(O)c3c(=O)c2c1CC=C(C)C)C=CC(C)(C)O4,7.3,> 90,191,26.2,Activity (Chikungunya virus [13]): 7.13 log10FFU/ml; IC50 (Chikungunya virus [10]): 7.71 µM; Activity (Chikungunya virus [14]): 7.21 log10FFU/ml; Activity (Chikungunya virus [18]): 7.37 log10FFU/ml
COc1c(OCC#Cc2ccccc2Br)cc2oc3cc4c(c(O)c3c(=O)c2c1CC=C(C)C)C=CC(C)(C)O4,,> 90,,,
Oc1cc(O)c2c(c1)O[C@@H](c1ccc(O)c(O)c1)[C@@H](O)C2 [(+)-EPICATECHIN],23.8,> 90,206,8.65,Activity (Chikungunya virus [11]): 7.45 log10FFU/ml; Activity (Chikungunya virus [18]): ~7.4 log10FFU/ml; Activity (Chikungunya virus [12]): Active
COc1c(OCC(=O)N2CCN(S(=O)(=O)c3ccc(Br)cc3)CC2)cc2oc3cc4c(c(O)c3c(=O)c2c1CC=C(C)C)C=CC(C)(C)O4,,> 90,,,
